Data as given in ChEMBL document CHEMBL6177948, “Discovery of potential Leonurine-based therapeutic lead MJ210 attenuates Parkinson's disease pathogenesis via NF-κB and MAPK pathways: Mechanistic insights from in vitro and in vivo rotenone models” (Eur J Med Chem, 2025).
Activity calls are given as the source filed them. No cut-off for these calls is given here.

Key:
SH-SY5Y [1] = test: Anti-apoptotic activity in rotenone-induced human SH-SY5Y cells assessed as increase in Bcl-xL expression by Western blotting analysis; format: functional, cell-based
SH-SY5Y [2] = test: (§1) Reversal of rotenone-induced mitochondrial membrane depolarization in human SH-SY5Y cells assessed as increase in aggregates to monomer ratio at 5 uM preincubated with compound for 24 hrs followed by rotenone addition and measured after 24 hrs by JC-10 based fluorescence microscopic analysis; format: functional, cell-based; settings: time 48.0 hrs
SH-SY5Y [3] = test: (§2) Neuroprotective activity against rotenone-induced mitochondrial ROS generation in human SH-SY5Y cells assessed as decrease in ROS level at 5 uM preincubated with compound for 24 hrs followed by rotenone addition and measured after 24 hrs by […] fluorescence microscopic analysis; format: functional, cell-based; settings: time 48.0 hrs
SH-SY5Y [4] = test: as §2, with “neuronal apoptosis” for “mitochondrial ROS generation”, “number of apoptotic cells” for “ROS level”; format: functional, cell-based; settings: time 48.0 hrs
SH-SY5Y [5] = test: as §1, with “decrease” for “increase”, “JC-10 monomers by measuring green fluorescence” for “aggregates to monomer ratio”; format: functional, cell-based
[6] = target: Transcription factor p65 (Homo sapiens) (UniProt Q04206); test: Inhibition of rotenone-induced NFkappaB p65 translocation from cytosol to nucleus in human SH-SY5Y cells pretreated with compound followed by rotenone addition by DAPI staining based immunocytochemistry analysis; format: cell-based
Sequence of Transcription factor p65 (Homo sapiens) (Q04206 whole entry): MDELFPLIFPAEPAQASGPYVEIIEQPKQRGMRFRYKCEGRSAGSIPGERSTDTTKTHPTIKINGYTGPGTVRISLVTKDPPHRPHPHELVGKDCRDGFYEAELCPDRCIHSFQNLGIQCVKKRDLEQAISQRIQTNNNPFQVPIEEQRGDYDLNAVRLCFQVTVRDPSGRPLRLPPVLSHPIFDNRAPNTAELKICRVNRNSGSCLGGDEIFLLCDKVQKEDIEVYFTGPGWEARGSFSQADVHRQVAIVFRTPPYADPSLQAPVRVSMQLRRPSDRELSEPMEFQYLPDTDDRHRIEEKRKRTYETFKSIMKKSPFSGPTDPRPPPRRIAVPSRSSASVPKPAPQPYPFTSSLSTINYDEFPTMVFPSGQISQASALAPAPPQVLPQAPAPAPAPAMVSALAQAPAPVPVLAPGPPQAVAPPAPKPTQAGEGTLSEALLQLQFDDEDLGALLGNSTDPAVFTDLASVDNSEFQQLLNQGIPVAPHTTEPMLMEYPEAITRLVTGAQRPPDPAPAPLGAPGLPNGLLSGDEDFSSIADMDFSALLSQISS

SH-SY5Y [7] = test: Anti-inflammatory activity against rotenone-induced human SH-SY5Y cells assessed as reduction in TNF-alpha mRNA expression level by RT-qPCR analysis; format: functional, cell-based
SH-SY5Y [8] = test: Anti-inflammatory activity against rotenone-induced human SH-SY5Y cells assessed as reduction in IL-1beta mRNA expression level by RT-qPCR analysis; format: functional, cell-based
[9] = Stability in human serum assessed as compound remaining measured after 96 hrs by RP-HPLC analysis relative to control; format: ADME, cell-free; settings: read-out: Stability
Rattus norvegicus [10] = test: Anti-parkinson activity in rotenone-induced male Wistar rat model assessed as increase DAT expression in striatum at 5 mg/kg, ip pretreated with compound every alternative days followed by rotenone addition and measured after 42 days by Western blotting analysis; format: functional, organism-based; settings: time 42.0 day
Rattus norvegicus [11] = test: Anti-parkinson activity in rotenone-induced male Wistar rat model assessed as improvement in t-turn metrics at 5 mg/kg, ip pretreated with compound every alternative days followed by rotenone addition and measured after 42 days by pole test; format: functional, organism-based; settings: time 42.0 day
Rattus norvegicus [12] = test: Anti-parkinson activity in rotenone-induced male Wistar rat model assessed as improvement in t-total metrics at 5 mg/kg, ip pretreated with compound every alternative days followed by rotenone addition and measured after 42 days by pole test; format: functional, organism-based; settings: time 42.0 day
Rattus norvegicus [13] = test: Anti-parkinson activity in rotenone-induced male Wistar rat model assessed as decrease in fall time at 5 mg/kg, ip pretreated with compound every alternative days followed by rotenone addition and measured after 42 days by inverted grid test; format: functional, organism-based; settings: time 42.0 day
Rattus norvegicus [14] = test: Anti-parkinson activity in rotenone-induced neurodegeneration in male Wistar rat model assessed as minimal neuronal loss in cortex at 5 mg/kg, ip pretreated with compound every alternative days followed by rotenone addition and measured after 42 days by H and E staining based analysis; format: functional, organism-based; settings: time 42.0 day
Rattus norvegicus [15] = test: Anti-parkinson activity in rotenone-induced neurodegeneration in male Wistar rat model assessed as decrease neuronal damage in substantia nigra at 5 mg/kg, ip pretreated with compound every alternative days followed by rotenone addition and measured after 42 days by Nissl staining based analysis; format: functional, organism-based; settings: time 42.0 day
Rattus norvegicus [16] = test: Anti-parkinson activity in rotenone-induced neurodegeneration in male Wistar rat model assessed as reduction in necrosis in striatum at 5 mg/kg, ip pretreated with compound every alternative days followed by rotenone addition and measured after 42 days by Nissl staining based analysis; format: functional, organism-based; settings: time 42.0 day
Rattus norvegicus [17] = test: Anti-parkinson activity in rotenone-induced neurodegeneration in male Wistar rat model assessed as reduction in necrosis in substantia nigra at 5 mg/kg, ip pretreated with compound every alternative days followed by rotenone addition and measured after 42 days by Nissl staining based analysis; format: functional, organism-based; settings: time 42.0 day
Rattus norvegicus [18] = test: Anti-parkinson activity in rotenone-induced male Wistar rat assessed as increase in TH positive fiber density in striatum at 5 mg/kg, ip pretreated with compound every alternative days followed by rotenone addition and measured after 42 days by immunofluorescence staining based analysis; format: functional, organism-based; settings: time 42.0 day
Rattus norvegicus [19] = test: In vivo inhibition of MAPK signaling pathway in rotenone-induced parkinson disease male Wistar rat model assessed as reduction in ERK1/2 phosphorylation level in striatum at 5 mg/kg, ip pretreated with compound every alternative days followed by rotenone addition and measured after 42 days by Western blotting analysis; format: functional, organism-based; settings: time 42.0 day
[20] = Toxicity in male Wistar rat assessed as change in cellular structure of liver at 1 to 10 mg/kg by H and E staining based analysis; format: organism-based; settings: in vivo, dose 1-10 mg/kg
[21] = Toxicity in male Wistar rat assessed as change in cellular structure of kidney at 1 to 10 mg/kg by H and E staining based analysis; format: organism-based; settings: in vivo, dose 1-10 mg/kg
[22] = Drug uptake in male Wistar rat brain at 5 mg/kg, ip measured after 6 hrs by HPLC analysis; format: ADME, organism-based; settings: in vivo

In the case of `COc1cc(CCC(=O)N2CCCCC2)cc(OC)c1OC(=O)c1ccccn1`, the Activity (SH-SY5Y [1]) is reported as “Active”, the Activity (SH-SY5Y [2]) is reported as “Active” and the Activity (SH-SY5Y [3]) is reported as “Active”. For the same compound, the Activity (SH-SY5Y [4]) was “Active”, the Activity (SH-SY5Y [5]) was “Active” and the inhibition [6] was “Active”. For the same compound, the Activity (SH-SY5Y [7]) was “Active”, the Activity (SH-SY5Y [8]) was “Active” and the remaining at 96 h [9] was 86%. The Activity (Rattus norvegicus [10]) was “Active”, the Activity (Rattus norvegicus [11]) was “Active” and the Activity (Rattus norvegicus [12]) was “Active”. For the same compound, the Activity (Rattus norvegicus [13]) was “Active”, the Activity (Rattus norvegicus [14]) was “Active” and the Activity (Rattus norvegicus [15]) was “Active”. For the same compound, the Activity (Rattus norvegicus [16]) was “Active”, the Activity (Rattus norvegicus [17]) was “Active” and the Activity (Rattus norvegicus [18]) was “Active”. For the same compound, the inhibition (Rattus norvegicus [19]) was “Active”, the Activity [20] was “Non-toxic” and the Activity [21] was “Non-toxic”. The Drug uptake [22] was “Active”.
